# Data reported in PMC11195807, “Development of a multi-targeted chemotherapeutic approach based on G-quadruplex stabilisation and carbonic anhydrase inhibition” (Journal of Enzyme Inhibition and Medicinal Chemistry, 2024).
# What was measured:
# [1] = system: HeLa cells; assay: MTT assay, HeLa cells under hypoxic conditions (CoCl2); format: cell-based
# Description: Taking into consideration the good cytotoxicity of C-4,2 on cancer cells and its ability to stabilise GQ structures also in the cellular environment, we decided to further evaluate its antitumor potential by testing it under hypoxic conditions, when expression of high amounts of CA IX occurs. To this aim, HeLa cells were pre-treated for 60 h with a non-toxic concentration of cobalt(II) chloride hexahydrate (CoCl2, 50 μM, Figure S14, Supporting Information), which was employed as the chemical inducer of HIF-1α to establish hypoxia[70]^,[71]. After that, HeLa were exposed to increasing concentrations of C-4,2 or vehicle, for the following 12 h, still in the presence of CoCl2. […]
# For the MTT experiments in the presence of normal oxygen levels, HeLa cells were seeded in 96-well plates at a density of 15,000 cells per well (culture medium volume – 100 μL/well) and incubated at 37 °C, for 24 h. […] Finally, the optical density of the samples (at 570 nm) was measured on an ELx800 Absorbance Microplate Reader (BioTek Instruments, Inc., Winooski, VT, USA). The percentage (%) of cell survival for each condition was calculated by using the following equation: % cell survival=OD− OD0/ODCONTROL− OD0×100 where OD is the optical density of the sample, OD0 is the optical density of the background signal, and ODCONTROL is the optical density of the control sample (cells treated with vehicle, 0.5% DMSO). […]
# [2] = system: GQ structures; assay: BG4 immunofluorescence of GQ foci, hypoxic HeLa cells; format: cell-based; settings: hypoxic HeLa cells (50 μM CoCl2 60 h), 1 µM C-4,2 for 12 h, vs DMSO-treated hypoxic cells
# Description: Finally, we investigated C-4,2 capability to impact the formation of GQ structures even in hypoxic HeLa cells.
# Figure 7. (A) Representative fields showing G4 foci formation detected by immunofluorescence in HeLa cells pre-treated with 50 μM cobalt (II) chloride hexahydrate for 60 h to induce hypoxia and then exposed to 1 µM C-4,2 or vehicle (0.1% DMSO) for the following 12 h, still in the presence of CoCl2. DMSO-treated normoxic HeLa cells are also shown. Scale bar: 10 µm. Upper panels: the merged channels of BG4-stained GQ structures (magenta) and Hoechst-counterstained nuclei (grey) are reported. Lower panels: enlargements from the pictures in the upper panels. (B) Quantification of the cellular BG4 foci in DMSO-treated normoxic HeLa cells, DMSO-treated hypoxic HeLa cells, and C-4,2-treated hypoxic HeLa cells. An average of 50 cells were screened for each condition. […] The statistical significance was calculated using a one-way ANOVA test on GraphPad Prism 8.0.2 (**: p < 0.01, ****: p < 0.0001).
# For the IF experiments in the presence of normal oxygen levels, HeLa cells were seeded on sterile coverslips, in a 24-well plate, at a density of 90,000 cells per well, and incubated overnight. […] From there, the cellular and nuclear foci were segmented, and their number or fluorescence intensity was quantified by using the Image Analysis package of ZEISS ZEN 3.1 software.
smiles,measurement,setting,value
"COc1ccc2cc3[n+](cc2c1OCCCCn1cc(COc2ccc4ccc(=O)oc4c2)nn1)CCc1cc2c(cc1-3)OCO2 [Compound 37, 10-Methoxy-9–(4-(4-(((2-oxo-2H-chromen-7-yl)oxy)methyl)-1H-1,2,3-triazol-1-yl)butoxy)-5,6-dihydro-[1,3]dioxolo[4,5-g]isoquinolino[3,2-a]isoquinolin-7-ium hexafluorophosphate]",cytotoxicity compared with co-exposure to equimolar berberine and C,"[1]; 12 h, hypoxia (CoCl2)",greater
same,IC50,"[1]; Homo sapiens, 60 h pre-treatment with 50 μM CoCl2, then 12 h treatment, hypoxia",26.5 µM
same,number of detectable GQs (BG4 foci),[2],remarkable increase
